Source: patent US20120003186A1, “METHOD FOR DEDIFFERENTIATING ADIPOSE TISSUE STROMAL CELLS” (SNU R&DB FOUNDATION, priority 2010, published 2012)

Legend:
Format in all cases: cell-based, human
[1] = system: dedifferentiated ATSC; test: Western blotting of growth-related signal proteins with inhibitor treatment; conditions: FIG. 9a
From the text: The inventors conducted following experiment to confirm the expression pattern of growth-related signal protein and Rex-1 in ATSC treated with hypoxia/DHP-derivative. To be specific, the expression of P-Jak2 (Phosphorylated-Janus kinase 2) and P-Stat3 (Phosphorylated-signal transducer and activator of transcription3) was observed by Western blotting using anti-P-Jak2 antibody and anti-P-Stat3 antibody in the same manner explained above in Examples 2 and 3 in cells of control group not treated with AG490 (Jak2 inhibitor, Sigma) and in cells of experimental group not treated with AG490 or treated with 20 μM or 30 μM. The expression of p-STAT3 and STAT3 was observed by Western blotting using anti-p-STAT3 antibody and anti-Stat3 antibody in the same manner of the Examples 2 and 3 in a control group not treated with AG490 and experimental group treated with hypoxia/DHP-derivative for 6 hours and then treated or not treated with AG490. The expression of p-MEK (Phosphorylated-Mitogen-activated Protein/ERK Kinase), MEK, p-ERK (Phosphorylated-Extracellular signal-regulated kinases), ERK, C-myc, p-STAT3 and STAT3 proteins was observed by Western blotting in the same manner of the Examples 2 and 3 in control group not treated with PD98059 (MEX inhibitor, Sigma) and experimental group treated with hypoxia/DHP-derivative for 6 hours and then treated or not treated with PD98059. The expression of p-P38, P38, P53 and P21 protein was observed by Western blotting in the same manner of Examples 2 and 3 in control group not treated with SB203580 (P38MAPK inhibitor, Sigma) and experimental group treated with hypoxia/DHP-derivative for 6 hours and then treated or not treated with SB203580. The antibodies to each protein were purchased from Santa Cruz. The result is illustrated in FIG. 9a.

[2] = system: dedifferentiated ATSC; test: Real time PCR of stemness and proliferation genes with inhibitor treatment; conditions: FIG. 9b; for expression of Oct-4 / expression of REX1, SOX2, CDk1 and CDk2: dedifferentiated ATSC treated with inhibitor
Experimental: The expression of Rex1, CDk1 and Runx3 genes were observed by real time PCR in the same manner of the Examples 2 and 3 in cells of control group not treated with AG490 and cells of experimental group not treated with AG490 or treated with 20 μM or 30 μM. As for a quantitative control group, the expression of GAPDH (glyceraldehyde-3-phosphate dehydrogenase) was also observed.
Expressions of REX1, Oct-4, SOX2, CDk1 and CDk2 were observed by real time PCR in the same manner of Examples 2 and 3 in each of the following cases. ATSC were treated with hypoxia/DPH-derivative for 6 hours and then divided into cases including: i) sample treated with nothing; ii) sample treated with SB203580 only; iii) sample treated with PD98059 only; and iv) sample treated with SB203580 and PD98059. As for a quantitative control group, the expression of GAPDH was also confirmed. The result is illustrated in FIG. 9b.

[3] = system: dedifferentiated ATSC; test: Colony formation with inhibitor treatment; conditions: dedifferentiated ATSC vs non-treated experimental group; similar to control group; FIG. 10
Experimental: The inventors conducted following experiment to confirm the actual growth of ATSC treated with hypoxia/DHP-derivative by the activity of Rex-1 and growth-related signal protein which was confirmed at Example 7-1. To be specific, cells of control group and cells of experimental group treated with HPD98059, SB203580 or AG490, or not treated were prepared, and measured for colony formation. The result is illustrated in FIG. 10.

[4] = system: dedifferentiated ATSC; test: Cell migration with signal transmission inhibitors; conditions: dedifferentiated ATSC treated with inhibitor; FIG. 15
Experimental: In the developmental procedures, cell migration is considered to be critical for normal development. Accordingly, the inventors conducted experiment as explained below to confirm the in vitro migration activity of dedifferentiated ATSC. First, experimental group was cultured in a culture medium containing control cell group and DHP-derivative under hypoxia condition for 30 minutes or 6 hours and then cultured in low serum growth medium. The cultured cells were moved onto 6-transwell plate (8 μm pore size; Costar, U.S.A) coated with laminin (Chemicon, U.S.A). The respective cells were divided on an upper layer chamber, and cultured under 37° C., 5% carbon dioxide condition for 48 hours, during which the cells were left to migrate from the upper layer chamber to the lower layer chamber. The remaining, non-migrated cells were removed from the surface of the upper layer chamber and the migrated cells in the lower layer chamber were stained with Harris hematoxylin (Sigma Aldrich, U.S.A). Cells were counted from 20-selected areas for the respective cells.
The inventors conducted experiment to confirm the signal pathway that influences the in vitro migration of ATSC which were treated with hypoxia/DHP-derivative.

[5] = vs sample not treated with inhibitor

SMILES | expression of P-Jak2 and P-Stat3 ([1]; higher concentration of AG490 (20 μM or 30 μM)) | expression of Rex′1, CDK1, CDK2, Nanog and Runx3 ([2]; dedifferentiated ATSC, higher concentration of AG490) | cell proliferation (colony formation) [3] | expression of C-myc [1, 5] | phosphorylation of MEK [1, 5] | expression of Oct-4 [2] | expression of REX1, SOX2, CDk1 and CDk2 [2] | cell migration [4] | expression of P53 and P21 [1, 5] | phosphorylation of P38 [1, 5]
N#C/C(=C/c1ccc(O)c(O)c1)C(=O)NCc1ccccc1 [AG490] | decreased expression | decreased expression | decreased cell proliferation | – | – | – | – | – | – | –
COc1cccc(-c2cc(=O)c3ccccc3o2)c1N [PD98059] | – | – | decreased cell proliferation | decreased expression | increased phosphorylation | not changed | decreased | noticeably decreased | – | –
C[S+]([O-])c1ccc(-c2nc(-c3ccncc3)c(-c3ccc(F)cc3)[nH]2)cc1 (stereo not drawn) [SB203580] | – | – | decreased cell proliferation | – | – | not changed | decreased | noticeably decreased | increased expression | decreased phosphorylation
